Molecules are shown by their SMILES.

In the assay the target is T1, Cytosol aminopeptidase [33-68,L62W] (Sus scrofa, UniProt P28839, L62W).
T1 construct: 33-68
T1 sequence (P28839 33-68 L62W): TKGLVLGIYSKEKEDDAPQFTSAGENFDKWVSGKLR
Description: Kinetic Inhibition Assay. The conditions noted are these: pH 8.4; 25 °C. The method, then: LAP was assayed in 75 mM triethanolamine hydrochloride buffer (pH = 8.4, containing 5 mM MgCl2) at 25°C. The substrate (L-leucine-p-nitroanilide) was dissolved in DMSO and added to the assay buffer followed by the enzyme. The hydrolysis of the substrate was monitored by the change in absorbance measured at 405 nm. All the inhibitor solutions were prepared in the assay buffer. The assay solution, which contained 0.05 mL of the substrate solution (0.2, 0.4, 0.6, 0.8, 1 mM final concentrations), 0.25 mL of an inhibitor solution (concentration dependent on the inhibitor), the enzyme solution (20 μg/ml final concentration) and adjusted to a 1 mL final volume.
Regarding `CCCC[C@H](N)P(=O)(O)O` [1-aminopentylphosphonic acid], affinity was put at a Ki of 58 µM. The value for `CSCC[C@H](N)P(=O)(O)O` [Met-P (1)] was 22.6 µM; that for `CSCC[C@H](N)[P@H](=O)O` [Met-PH (2)] was 22 µM. Turning to `CSCCC(N)P(=O)(O)CC(C)C(=O)O` (configuration not stated) [Met-ψ[P(O)(OH)CH2]-Ala (5)], the Ki worked out at 3.64 µM. Then `CCCCC(N)[PH](=O)O` (configuration not stated) [Nle-PH (4)], with 73.9 µM; and `CCCCC(N)P(=O)(O)O[C@@H](C)C(=O)O` (stereo partly drawn) [Nle-ψ[P(O)(OH)O]-L-Ala (6)], with 269 µM; and `CCCCC(N)P(=O)(O)O[C@@H](C)C(=O)OC` (stereo partly drawn) [Nle-ψ[P(O)(OH)O]-L-AlaOMe (7)], with 219 µM.

What is called Ki is the equilibrium dissociation constant of an inhibitor or competing ligand from its target. A lower Ki goes with higher affinity.

The values above are taken from BindingDB's records for doi:10.3109/14756366.2010.482047 (Academy of Sciences of The Czech Republic, 2011).
